Data from US20230085307A1, “PYRIDAZINONE COMPOUND AND HERBICIDE” (NISSAN CHEMICAL CORPORATION, priority 2019, published 2023).

Legend:
[1] = tested on: late watergrass; assay: Test Example 1: herbicidal activity, application before weed generation under submerged conditions (Table 16, symbol A); format: in vivo, late watergrass (Echinochloa oryzicola); conditions: amount of applied herbicide 320 g/ha
How it was run: (§1)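 Alluvial soil was flooded to 4 cm depth, weed seeds were sown mixed and 2.5-leaf rice seedlings were transplanted. On sowing day, the compound's emulsion, diluted in water to a set dose, was applied to the water surface. Plants grew at 25–30 °C and were scored 0–5 after three weeks.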

[2] = tested on: Japanese bulrush; assay: Test Example 1: herbicidal activity, application before weed generation under submerged conditions (Table 16, symbol B); format: in vivo, Japanese bulrush (Schoenoplectus juncoides); conditions: amount of applied herbicide 320 g/ha
How it was run: as §1

[3] = tested on: oval-leafed pondweed; assay: Test Example 1: herbicidal activity, application before weed generation under submerged conditions (Table 16, symbol C); format: in vivo, oval-leafed pondweed (Monochoria vaginalis); conditions: amount of applied herbicide 320 g/ha
How it was run: as §1

[4] = tested on: barnyard grass; assay: Test Example 3: herbicidal effect by foliage application, Wagner pot (Table 18, symbol H); format: in vivo, barnyard grass (Echinochloa crus-galli); conditions: 320 g/ha
How it was run: (§2)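 Plants were sown in alluvial soil held under 0.1–0.5 cm standing water and grown 14 days in a greenhouse at 25–30 °C. An emulsifiable formulation, water-diluted to the set dose, was then sprayed onto the foliage, and effects were scored three weeks later using previously defined criteria.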

[5] = tested on: Chinese sprangletop; assay: Test Example 3: herbicidal effect by foliage application, Wagner pot (Table 18, symbol D); format: in vivo, chinese sprangletop (Leptochloa chinensis)
How it was run: as §2

[6] = tested on: rice flat sedge; assay: Test Example 3: herbicidal effect by foliage application, Wagner pot (Table 18, symbol E); format: in vivo, rice flat sedge (Cyperus iria)
How it was run: as §2

[7] = tested on: southern crabgrass; assay: Test Example 4: herbicidal effect by soil treatment (Table 19, symbol F); format: in vivo, southern crabgrass (Digitaria ciliaris); conditions: amount of applied herbicide 320 g/ha
How it was run: (§3)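 Seeds were sown in sterilized diluvial soil and covered with about 1.5 cm of soil. An emulsion formulation diluted with water to a predetermined herbicide amount was sprayed evenly onto the soil surface. Plants grew in a greenhouse at 25° C. to 30° C., and the effect was scored three weeks after application using criteria from an earlier test.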

[8] = tested on: green foxtail; assay: Test Example 4: herbicidal effect by soil treatment (Table 19, symbol G); format: in vivo, green foxtail (Setaria viridis); conditions: amount of applied herbicide 320 g/ha
How it was run: as §3

[9] = tested on: barnyard grass; assay: Test Example 4: herbicidal effect by soil treatment (Table 19, symbol H); format: in vivo, barnyard grass (Echinochloa crus-galli); conditions: amount of applied herbicide 320 g/ha
How it was run: as §3

[10] = tested on: wild oat; assay: Test Example 4: herbicidal effect by soil treatment (Table 19, symbol I); format: in vivo, wild oat (Avena fatua); conditions: amount of applied herbicide 320 g/ha
How it was run: as §3

[11] = tested on: blackgrass; assay: Test Example 4: herbicidal effect by soil treatment (Table 19, symbol J); format: in vivo, blackgrass (Alopecurus myosuroides); conditions: amount of applied herbicide 320 g/ha
How it was run: as §3

[12] = tested on: Italian ryegrass; assay: Test Example 4: herbicidal effect by soil treatment (Table 19, symbol K); format: in vivo, Italian ryegrass (Lolium multiflorum); conditions: amount of applied herbicide 320 g/ha
How it was run: as §3

[13] = tested on: windgrass; assay: Test Example 4: herbicidal effect by soil treatment (Table 19, symbol L); format: in vivo, windgrass (Apera spica-venti); conditions: amount of applied herbicide 320 g/ha
How it was run: as §3

[14] = tested on: velvetleaf; assay: Test Example 4: herbicidal effect by soil treatment (Table 19, symbol M); format: in vivo, velvetleaf (Abutilon theophrasti); conditions: amount of applied herbicide 320 g/ha
How it was run: as §3

[15] = tested on: redroot pigweed; assay: Test Example 4: herbicidal effect by soil treatment (Table 19, symbol N); format: in vivo, redroot pigweed (Amaranthus retroflexus); conditions: amount of applied herbicide 320 g/ha
How it was run: as §3

[16] = tested on: lambsquarters; assay: Test Example 4: herbicidal effect by soil treatment (Table 19, symbol O); format: in vivo, lambsquarters (Chenopodium album); conditions: amount of applied herbicide 320 g/ha
How it was run: as §3

[17] = tested on: chickweed; assay: Test Example 4: herbicidal effect by soil treatment (Table 19, symbol P); format: in vivo, common chickweed (Stellaria media); conditions: amount of applied herbicide 320 g/ha
How it was run: as §3

[18] = tested on: false cleavers; assay: Test Example 4: herbicidal effect by soil treatment (Table 19, symbol Q); format: in vivo, false cleavers (Galium spurium); conditions: amount of applied herbicide 320 g/ha
How it was run: as §3

[19] = tested on: persian speedwell; assay: Test Example 4: herbicidal effect by soil treatment (Table 19, symbol R); format: in vivo, Persian speedwell (Veronica persica); conditions: amount of applied herbicide 320 g/ha
How it was run: as §3

[20] = tested on: southern crabgrass; assay: Test Example 5: herbicidal effect by foliage application, plastic box (Table 20, symbol F); format: in vivo, southern crabgrass (Digitaria ciliaris); conditions: evaluated three weeks after application
How it was run: (§4)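 Plants sown in sterilized diluvial soil and grown 14 days in a greenhouse at 25° C to 30° C, then sprayed on the foliage with the compound's emulsion diluted in water to a predetermined herbicide amount. Injury to weeds and crops scored three weeks after application on a visual rating scale.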

[21] = tested on: green foxtail; assay: Test Example 5: herbicidal effect by foliage application, plastic box (Table 20, symbol G); format: in vivo, green foxtail (Setaria viridis); conditions: evaluated three weeks after application
How it was run: as §4

[22] = tested on: barnyard grass; assay: Test Example 5: herbicidal effect by foliage application, plastic box (Table 20, symbol H); format: in vivo, barnyard grass (Echinochloa crus-galli); conditions: evaluated three weeks after application
How it was run: as §4

[23] = tested on: wild oat; assay: Test Example 5: herbicidal effect by foliage application, plastic box (Table 20, symbol I); format: in vivo, wild oat (Avena fatua); conditions: evaluated three weeks after application
How it was run: as §4

[24] = tested on: blackgrass; assay: Test Example 5: herbicidal effect by foliage application, plastic box (Table 20, symbol J); format: in vivo, blackgrass (Alopecurus myosuroides); conditions: evaluated three weeks after application
How it was run: as §4

[25] = tested on: Italian ryegrass; assay: Test Example 5: herbicidal effect by foliage application, plastic box (Table 20, symbol K); format: in vivo, Italian ryegrass (Lolium multiflorum); conditions: evaluated three weeks after application
How it was run: as §4

[26] = tested on: windgrass; assay: Test Example 5: herbicidal effect by foliage application, plastic box (Table 20, symbol L); format: in vivo, windgrass (Apera spica-venti); conditions: evaluated three weeks after application
How it was run: as §4

[27] = tested on: velvetleaf; assay: Test Example 5: herbicidal effect by foliage application, plastic box (Table 20, symbol M); format: in vivo, velvetleaf (Abutilon theophrasti); conditions: evaluated three weeks after application
How it was run: as §4

[28] = tested on: redroot pigweed; assay: Test Example 5: herbicidal effect by foliage application, plastic box (Table 20, symbol N); format: in vivo, redroot pigweed (Amaranthus retroflexus); conditions: evaluated three weeks after application
How it was run: as §4

[29] = tested on: lambsquarters; assay: Test Example 5: herbicidal effect by foliage application, plastic box (Table 20, symbol O); format: in vivo, lambsquarters (Chenopodium album); conditions: evaluated three weeks after application
How it was run: as §4

[30] = tested on: chickweed; assay: Test Example 5: herbicidal effect by foliage application, plastic box (Table 20, symbol P); format: in vivo, common chickweed (Stellaria media); conditions: evaluated three weeks after application
How it was run: as §4

[31] = tested on: persian speedwell; assay: Test Example 5: herbicidal effect by foliage application, plastic box (Table 20, symbol R); format: in vivo, Persian speedwell (Veronica persica); conditions: evaluated three weeks after application
How it was run: as §4

[32] = amount of applied herbicide 320 g/ha, foliage application after 14-day growth
[33] = amount of applied herbicide 320 g/ha
[34] = foliage application, AAH 320 g/ha

CCCC(=O)Oc1c(C)nn(C)c(=O)c1-c1c(-c2ccc3c(c2)OCO3)sc2cc(F)c(F)cc12 [5-036]
Herbicidal effect, A: late watergrass [1]: 2 (Herbicidal rate of 20% or more and less than 40%)
Herbicidal effect, B: Japanese bulrush [2]: 2 (Herbicidal rate of 20% or more and less than 40%)
Herbicidal effect, C: oval-leafed pondweed [3]: 2 (Herbicidal rate of 20% or more and less than 40%)
herbicidal effect on barnyard grass (H) [4]: 2 (Herbicidal rate of 20% or more and less than 40%)
herbicidal effect on Chinese sprangletop (D) ([5]; 320 g/ha): 0 (Herbicidal rate of 5% or less (almost no effect))
herbicidal effect on rice flat sedge (E) ([6]; 320 g/ha): 0 (Herbicidal rate of 5% or less (almost no effect))
F: southern crabgrass, herbicidal effect grade [7]: 0 (Herbicidal rate of 5% or less (almost no effect))
G: green foxtail, herbicidal effect grade [8]: 1 (Herbicidal rate of 5% or more and less than 20%)
H: barnyard grass, herbicidal effect grade [9]: 0 (Herbicidal rate of 5% or less (almost no effect))
I: wild oat, herbicidal effect grade [10]: 0 (Herbicidal rate of 5% or less (almost no effect))
J: blackgrass, herbicidal effect grade [11]: 0 (Herbicidal rate of 5% or less (almost no effect))
K: Italian ryegrass, herbicidal effect grade [12]: 0 (Herbicidal rate of 5% or less (almost no effect))
L: windgrass, herbicidal effect grade [13]: 0 (Herbicidal rate of 5% or less (almost no effect))
M: velvetleaf, herbicidal effect grade [14]: 0 (Herbicidal rate of 5% or less (almost no effect))
N: redroot pigweed, herbicidal effect grade [15]: 4 (Herbicidal rate of 70% or more and less than 90%)
O: lambsquarters, herbicidal effect grade [16]: 3 (Herbicidal rate of 40% or more and less than 70%)
P: chickweed, herbicidal effect grade [17]: 3 (Herbicidal rate of 40% or more and less than 70%)
Q: false cleavers, herbicidal effect grade [18]: 0 (Herbicidal rate of 5% or less (almost no effect))
R: persian speedwell, herbicidal effect grade [19]: 3 (Herbicidal rate of 40% or more and less than 70%)
Herbicidal effect by foliage application, F: southern crabgrass [20, 32]: 0 (Herbicidal rate of 5% or less (almost no effect))
Herbicidal effect by foliage application, G: green foxtail [21, 32]: 0 (Herbicidal rate of 5% or less (almost no effect))
Herbicidal effect by foliage application, H: barnyard grass [22, 32]: 0 (Herbicidal rate of 5% or less (almost no effect))
Herbicidal effect by foliage application, I: wild oat [23, 32]: 0 (Herbicidal rate of 5% or less (almost no effect))
Herbicidal effect by foliage application, J: blackgrass [24, 32]: 0 (Herbicidal rate of 5% or less (almost no effect))
Herbicidal effect by foliage application, K: Italian ryegrass [25, 32]: 0 (Herbicidal rate of 5% or less (almost no effect))
Herbicidal effect by foliage application, L: windgrass [26, 32]: 0 (Herbicidal rate of 5% or less (almost no effect))
Herbicidal effect by foliage application, M: velvetleaf [27, 32]: 3 (Herbicidal rate of 40% or more and less than 70%)
Herbicidal effect by foliage application, N: redroot pigweed [28, 32]: 1 (Herbicidal rate of 5% or more and less than 20%)
Herbicidal effect by foliage application, O: lambsquarters [29, 32]: 3 (Herbicidal rate of 40% or more and less than 70%)
Herbicidal effect by foliage application, P: chickweed [30, 32]: 5 (Herbicidal rate of 90% or more (almost completely withered))
Herbicidal effect by foliage application, R: persian speedwell [31, 32]: 5 (Herbicidal rate of 90% or more (almost completely withered))

CCn1nc(C)c(O)c(-c2c(-c3ccc(F)cc3)sc3ccc(F)cc23)c1=O [2-398]
Herbicidal effect, A: late watergrass [1]: 3 (Herbicidal rate of 40% or more and less than 70%)
Herbicidal effect, B: Japanese bulrush [2]: 3 (Herbicidal rate of 40% or more and less than 70%)
Herbicidal effect, C: oval-leafed pondweed [3]: 0 (Herbicidal rate of 5% or less (almost no effect))
herbicidal effect on D: Chinese sprangletop [5, 33]: 0 (Herbicidal rate of 5% or less (almost no effect))
herbicidal effect on E: rice flat sedge [6, 33]: 3 (Herbicidal rate of 40% or more and less than 70%)
herbicidal effect, F: southern crabgrass [7]: 3 (Herbicidal rate of 40% or more and less than 70%)
herbicidal effect, G: green foxtail [8]: 3 (Herbicidal rate of 40% or more and less than 70%)
herbicidal effect, H: barnyard grass [9]: 2 (Herbicidal rate of 20% or more and less than 40%)
herbicidal effect, I: wild oat [10]: 0 (Herbicidal rate of 5% or less (almost no effect))
herbicidal effect, J: blackgrass [11]: 0 (Herbicidal rate of 5% or less (almost no effect))
herbicidal effect, K: Italian ryegrass [12]: 4 (Herbicidal rate of 70% or more and less than 90%)
herbicidal effect, L: windgrass [13]: 0 (Herbicidal rate of 5% or less (almost no effect))
herbicidal effect, M: velvetleaf [14]: 1 (Herbicidal rate of 5% or more and less than 20%)
herbicidal effect, N: redroot pigweed [15]: 4 (Herbicidal rate of 70% or more and less than 90%)
herbicidal effect, O: lambsquarters [16]: 3 (Herbicidal rate of 40% or more and less than 70%)
herbicidal effect, P: chickweed [17]: 0 (Herbicidal rate of 5% or less (almost no effect))
herbicidal effect, Q: false cleavers [18]: 0 (Herbicidal rate of 5% or less (almost no effect))
herbicidal effect, R: persian speedwell [19]: 1 (Herbicidal rate of 5% or more and less than 20%)
F: southern crabgrass, herbicidal effect (criteria 0-5) [20, 34]: 4 (Herbicidal rate of 70% or more and less than 90%)
G: green foxtail, herbicidal effect (criteria 0-5) [21, 34]: 4 (Herbicidal rate of 70% or more and less than 90%)
H: barnyard grass, herbicidal effect (criteria 0-5) [22, 34]: 5 (Herbicidal rate of 90% or more (almost completely withered))
I: wild oat, herbicidal effect (criteria 0-5) [23, 34]: 0 (Herbicidal rate of 5% or less (almost no effect))
J: blackgrass, herbicidal effect (criteria 0-5) [24, 34]: 0 (Herbicidal rate of 5% or less (almost no effect))
K: Italian ryegrass, herbicidal effect (criteria 0-5) [25, 34]: 4 (Herbicidal rate of 70% or more and less than 90%)
L: windgrass, herbicidal effect (criteria 0-5) [26, 34]: 0 (Herbicidal rate of 5% or less (almost no effect))
M: velvetleaf, herbicidal effect (criteria 0-5) [27, 34]: 5 (Herbicidal rate of 90% or more (almost completely withered))
N: redroot pigweed, herbicidal effect (criteria 0-5) [28, 34]: 5 (Herbicidal rate of 90% or more (almost completely withered))
O: lambsquarters, herbicidal effect (criteria 0-5) [29, 34]: 4 (Herbicidal rate of 70% or more and less than 90%)
P: chickweed, herbicidal effect (criteria 0-5) [30, 34]: 5 (Herbicidal rate of 90% or more (almost completely withered))
R: persian speedwell, herbicidal effect (criteria 0-5) [31, 34]: 5 (Herbicidal rate of 90% or more (almost completely withered))
